Data: patent US20210317102A1, “INHIBITORS OF INTEGRATED STRESS RESPONSE PATHWAY” (Praxis Biotech LLC, priority 2019, published 2021)

Key:
[1] = tested on: ARH cells; test: Secretion of Ig-kappa by ARH cells; format: cell-based; details: 1 µM of compound 10 for 24 hours, vs vehicle (0.1% DMSO)
Experimental: ARH cells were maintained at 37° C. and 5% CO2 and seeded at a density of 500,000 cell/well in RPMI supplemented with, 100 U/ml penicillin, and 100 μg/ml streptomycin in a 12-well culture plate. Cells were treated either with vehicle (0.1% DMSO) or […] of compound 10 for 24 hours. Then, culture media with cells were recovered in microtubes and centrifuged at 500 g for 5 minutes. Supernatants (SN) which contain secreted proteins were extracted and protease and phosphatase inhibitors (Roche) were added to each sample. SN were centrifuged at 2,000 g for 10 min to discard any cellular debris and 900 μL SN were transferred to empty microtubes with 400 μL methanol by mixing well. 200 μL of chloroform was added to the mix and then samples were centrifuged at 14,000 g for 2 minutes. Top aqueous layer was discarded by pipetting off and 400 μL methanol was added to each sample by mixing well. Samples were then centrifuged at 17,000 g for 8 minutes and methanol was discarded by pipetting off without disturbing the protein pellet. […] Quantification of protein bands was done by densitometry using ImageJ software.
Percent of secreted Ig kappa light chain by ARH cells treated with vehicle or compound 10 from three independent experiments is shown in FIG. 4. Percentage was calculated as the percent relative to Ig kappa secretion levels from ARH cells treated with vehicle which correspond to 100%.

[2] = tested on: L-Wnt-3A cells; test: Secretion of Wnt-3A by L-Wnt-3A cells; format: cell-based; details: 1 µM compound 10, DMEM with reduced FBS (1%), 24 hours, vs vehicle
Experimental: L-Wnt-3A cells (ATCC® CRL-2647™) were maintained at 37° C. and 5% CO2 in DMEM supplemented with 10% fetal bovine serum (FBS), 2 mM L-glutamine, 100 U/ml penicillin, and 100 μg/ml streptomycin. After reaching 80% of confluence, cells were detached and seeded on 6-well plates in complete media, allowed to recover for 48 h. Cells were then washed three times with PBS and treated with vehicle (1% DMSO) or 1 µM compound 10 in DMEM with reduced FBS (1%) for 24 hours. Then, culture media with cells were recovered in microtubes and centrifuged at 500 g for 5 minutes. Supernatants (SN) which contain secreted proteins were extracted and protease and phosphatase inhibitors (Roche) were added to each sample. SN were centrifuged at 2,000 g for 10 min to discard any cellular debris and 900 μL SN were transferred to empty microtubes with […] methanol by mixing well. 200 μL of chloroform was added to the mix and then samples were centrifuged at 14,000 g for 2 minutes. […] Quantification of protein bands was done by densitometry using ImageJ software.
Percent of secreted Wnt-3A by L-Wnt3A cells treated with vehicle or compound 10 from two independent experiments is shown in FIG. 5. Percentage was calculated as the percent relative to […] secretion levels from L-Wnt-3A cells treated with vehicle which correspond to 100%.

In the case of O=C(COc1ccc(Cl)c(F)c1)N[C@H]1CC[C@H](CNC(=O)c2ccc3cc(Cl)ccc3n2)CC1 [Compound 10, trans-6-chloro-N-((4-(2-(4-chloro-3-fluorophenoxy)acetamido)cyclohexyl)methyl)quinoline-2-carboxamide], the “Secretion of Ig kappa light chain” value [1] is reported as “increased the secretion of the immunoglobulin light chain kappa” and the “Secretion of Wnt-3A” value [2] is reported as “increased the secretion of a particular protein (Wnt-3A)”.
